{
  "source": "patent US11767341B2",
  "about": "“Lincosamide antibiotics and uses thereof” (President and Fellows of Harvard College, priority 2017, dated 2023)",
  "data": [
    {"tested_on": "S. pneumoniae MMX 3028 cErmB", "test": "MIC determination", "format": "cell-based", "conditions": "Streptococcus pneumoniae, MMX3028CERMB; S. pneumoniae MMX 3028 cErmB; read-out: MIC", "units": {"MIC": "µg/mL"}, "values": [
      {"smiles": "CSC1O[C@H]([C@H](NC(=O)[C@H]2NC[C@@H]3C[C@@H](c4ccc(F)cc4)CCO[C@H]32)[C@H](C)Cl)C(O)[C@@H](O)[C@H]1O", "note": "(stereo partly drawn) [FSA-507061]", "MIC": 4}
    ]},
    {"tested_on": "P. aeruginosa MMX Mex parent strain", "test": "MIC determination", "format": "cell-based", "conditions": "Pseudomonas aeruginosa; P. aeruginosa MMX Mex parent strain; read-out: MIC", "units": {"MIC": "µg/mL"}, "values": [
      {"smiles": "CSC1O[C@H]([C@H](NC(=O)[C@H]2NC[C@@H]3C[C@@H](c4ccc(F)cc4)CCO[C@H]32)[C@H](C)Cl)C(O)[C@@H](O)[C@H]1O", "note": "(stereo partly drawn) [FSA-507061]", "MIC": "> 64"}
    ]},
    {"tested_on": "S. pneumoniae ATCC 49619", "test": "MIC determination", "format": "cell-based", "conditions": "Streptococcus pneumoniae, ATCC49619; S. pneumoniae ATCC 49619; read-out: MIC", "units": {"MIC": "µg/mL"}, "values": [
      {"smiles": "CSC1O[C@H]([C@H](NC(=O)[C@H]2NC[C@@H]3C[C@@H](c4ccc(F)cc4)CCO[C@H]32)[C@H](C)Cl)C(O)[C@@H](O)[C@H]1O", "note": "(stereo partly drawn) [FSA-507061]", "MIC": "≤ 0.06"}
    ]},
    {"tested_on": "P. aeruginosa ATCC 27853", "test": "MIC determination", "format": "cell-based", "conditions": "Pseudomonas aeruginosa, ATCC27853; P. aeruginosa ATCC 27853; read-out: MIC", "units": {"MIC": "µg/mL"}, "values": [
      {"smiles": "CSC1O[C@H]([C@H](NC(=O)[C@H]2NC[C@@H]3C[C@@H](c4ccc(F)cc4)CCO[C@H]32)[C@H](C)Cl)C(O)[C@@H](O)[C@H]1O", "note": "(stereo partly drawn) [FSA-507061]", "MIC": "> 64"}
    ]},
    {"tested_on": "E. coli MP-74 LptD mutant", "test": "MIC determination", "format": "cell-based", "conditions": "Escherichia coli", "units": {"MIC": "µg/mL"}, "values": [
      {"smiles": "CSC1O[C@H]([C@H](NC(=O)[C@H]2NC[C@@H]3C[C@@H](c4ccc(F)cc4)CCO[C@H]32)[C@H](C)Cl)C(O)[C@@H](O)[C@H]1O", "note": "(stereo partly drawn) [FSA-507061]", "MIC": 8}
    ]},
    {"tested_on": "S. pyogenes MMX 946 Macrolide-Resistant", "test": "MIC determination", "format": "cell-based", "conditions": "Streptococcus pyogenes; S. pyogenes MMX 946 Macrolide-Resistant (MacRes); read-out: MIC", "units": {"MIC": "µg/mL"}, "values": [
      {"smiles": "CSC1O[C@H]([C@H](NC(=O)[C@H]2NC[C@@H]3C[C@@H](c4ccc(F)cc4)CCO[C@H]32)[C@H](C)Cl)C(O)[C@@H](O)[C@H]1O", "note": "(stereo partly drawn) [FSA-507061]", "MIC": 4}
    ]},
    {"tested_on": "E. coli MMX 0121 ΔTolC", "test": "MIC determination", "format": "cell-based", "conditions": "Escherichia coli", "units": {"MIC": "µg/mL"}, "values": [
      {"smiles": "CSC1O[C@H]([C@H](NC(=O)[C@H]2NC[C@@H]3C[C@@H](c4ccc(F)cc4)CCO[C@H]32)[C@H](C)Cl)C(O)[C@@H](O)[C@H]1O", "note": "(stereo partly drawn) [FSA-507061]", "MIC": 2}
    ]},
    {"tested_on": "E. coli MMX TolC parent strain", "test": "MIC determination", "format": "cell-based", "conditions": "Escherichia coli; E. coli MMX TolC parent strain; read-out: MIC", "units": {"MIC": "µg/mL"}, "values": [
      {"smiles": "CSC1O[C@H]([C@H](NC(=O)[C@H]2NC[C@@H]3C[C@@H](c4ccc(F)cc4)CCO[C@H]32)[C@H](C)Cl)C(O)[C@@H](O)[C@H]1O", "note": "(stereo partly drawn) [FSA-507061]", "MIC": "> 64"}
    ]},
    {"tested_on": "S. aureus BAA 977 iErmA", "test": "MIC determination", "format": "cell-based", "conditions": "Staphylococcus aureus, BAA977", "units": {"MIC": "µg/mL"}, "values": [
      {"smiles": "CSC1O[C@H]([C@H](NC(=O)[C@H]2NC[C@@H]3C[C@@H](c4ccc(F)cc4)CCO[C@H]32)[C@H](C)Cl)C(O)[C@@H](O)[C@H]1O", "note": "(stereo partly drawn) [FSA-507061]", "MIC": 0.25}
    ]},
    {"tested_on": "K. pneumoniae ATCC 10031", "test": "MIC determination", "format": "cell-based", "conditions": "Klebsiella pneumoniae, ATCC10031; K. pneumoniae ATCC 10031; read-out: MIC", "units": {"MIC": "µg/mL"}, "values": [
      {"smiles": "CSC1O[C@H]([C@H](NC(=O)[C@H]2NC[C@@H]3C[C@@H](c4ccc(F)cc4)CCO[C@H]32)[C@H](C)Cl)C(O)[C@@H](O)[C@H]1O", "note": "(stereo partly drawn) [FSA-507061]", "MIC": 16}
    ]},
    {"tested_on": "S. aureus ATCC 29213", "test": "MIC determination", "format": "cell-based", "conditions": "Staphylococcus aureus, ATCC29213, S. aureus ATCC 29213; read-out: MIC", "units": {"MIC": "µg/mL"}, "values": [
      {"smiles": "CSC1O[C@H]([C@H](NC(=O)[C@H]2NC[C@@H]3C[C@@H](c4ccc(F)cc4)CCO[C@H]32)[C@H](C)Cl)C(O)[C@@H](O)[C@H]1O", "note": "(stereo partly drawn) [FSA-507061]", "MIC": 0.12}
    ]},
    {"tested_on": "S. aureus MMX 3035 cErmA", "test": "MIC determination", "format": "cell-based", "conditions": "Staphylococcus aureus, MMX3035CERMA; S. aureus MMX 3035 cErmA; read-out: MIC", "units": {"MIC": "µg/mL"}, "values": [
      {"smiles": "CSC1O[C@H]([C@H](NC(=O)[C@H]2NC[C@@H]3C[C@@H](c4ccc(F)cc4)CCO[C@H]32)[C@H](C)Cl)C(O)[C@@H](O)[C@H]1O", "note": "(stereo partly drawn) [FSA-507061]", "MIC": 64}
    ]},
    {"tested_on": "H. influenzae ATCC 49247", "test": "MIC determination", "format": "cell-based", "conditions": "Haemophilus influenzae, ATCC49247; H. influenzae ATCC 49247; read-out: MIC", "units": {"MIC": "µg/mL"}, "values": [
      {"smiles": "CSC1O[C@H]([C@H](NC(=O)[C@H]2NC[C@@H]3C[C@@H](c4ccc(F)cc4)CCO[C@H]32)[C@H](C)Cl)C(O)[C@@H](O)[C@H]1O", "note": "(stereo partly drawn) [FSA-507061]", "MIC": 4}
    ]},
    {"tested_on": "S. pyogenes ATCC 19615", "test": "MIC determination", "format": "cell-based", "conditions": "Streptococcus pyogenes, ATCC19615; S. pyogenes ATCC 19615; read-out: MIC", "units": {"MIC": "µg/mL"}, "values": [
      {"smiles": "CSC1O[C@H]([C@H](NC(=O)[C@H]2NC[C@@H]3C[C@@H](c4ccc(F)cc4)CCO[C@H]32)[C@H](C)Cl)C(O)[C@@H](O)[C@H]1O", "note": "(stereo partly drawn) [FSA-507061]", "MIC": "≤ 0.06"}
    ]},
    {"tested_on": "E. faecalis ATCC 29212", "test": "MIC determination", "format": "cell-based", "conditions": "Enterococcus faecalis, ATCC29212, read-out: MIC", "units": {"MIC": "µg/mL"}, "values": [
      {"smiles": "CSC1O[C@H]([C@H](NC(=O)[C@H]2NC[C@@H]3C[C@@H](c4ccc(F)cc4)CCO[C@H]32)[C@H](C)Cl)C(O)[C@@H](O)[C@H]1O", "note": "(stereo partly drawn) [FSA-507061]", "MIC": "≤ 0.06"}
    ]},
    {"tested_on": "E. faecalis MMX 847 Macrolide-Resistant", "test": "MIC determination", "format": "cell-based", "conditions": "Enterococcus faecalis; E. faecalis MMX 847 Macrolide-Resistant (MacRes); read-out: MIC", "units": {"MIC": "µg/mL"}, "values": [
      {"smiles": "CSC1O[C@H]([C@H](NC(=O)[C@H]2NC[C@@H]3C[C@@H](c4ccc(F)cc4)CCO[C@H]32)[C@H](C)Cl)C(O)[C@@H](O)[C@H]1O", "note": "(stereo partly drawn) [FSA-507061]", "MIC": 32}
    ]},
    {"tested_on": "E. coli MP-9 ΔTolC", "test": "MIC determination", "format": "cell-based", "conditions": "Escherichia coli", "units": {"MIC": "µg/mL"}, "values": [
      {"smiles": "CSC1O[C@H]([C@H](NC(=O)[C@H]2NC[C@@H]3C[C@@H](c4ccc(F)cc4)CCO[C@H]32)[C@H](C)Cl)C(O)[C@@H](O)[C@H]1O", "note": "(stereo partly drawn) [FSA-507061]", "MIC": 4}
    ]},
    {"tested_on": "E. coli ATCC 25922", "test": "MIC determination", "format": "cell-based", "conditions": "Escherichia coli, ATCC25922, E. coli ATCC 25922; read-out: MIC", "units": {"MIC": "µg/mL"}, "values": [
      {"smiles": "CSC1O[C@H]([C@H](NC(=O)[C@H]2NC[C@@H]3C[C@@H](c4ccc(F)cc4)CCO[C@H]32)[C@H](C)Cl)C(O)[C@@H](O)[C@H]1O", "note": "(stereo partly drawn) [FSA-507061]", "MIC": 64}
    ]},
    {"tested_on": "S. aureus MP-549 msr(a) USA 300", "test": "MIC determination", "format": "cell-based", "conditions": "Staphylococcus aureus, USA300, S. aureus MP-549 msr(a) USA 300", "units": {"MIC": "µg/mL"}, "values": [
      {"smiles": "CSC1O[C@H]([C@H](NC(=O)[C@H]2NC[C@@H]3C[C@@H](c4ccc(F)cc4)CCO[C@H]32)[C@H](C)Cl)C(O)[C@@H](O)[C@H]1O", "note": "(stereo partly drawn) [FSA-507061]", "MIC": 0.125}
    ]},
    {"tested_on": "B. fragilis ATCC 25285", "test": "MIC determination", "format": "cell-based", "conditions": "Bacteroides fragilis, ATCC25285; B. fragilis ATCC 25285; read-out: MIC", "units": {"MIC": "µg/mL"}, "values": [
      {"smiles": "CSC1O[C@H]([C@H](NC(=O)[C@H]2NC[C@@H]3C[C@@H](c4ccc(F)cc4)CCO[C@H]32)[C@H](C)Cl)C(O)[C@@H](O)[C@H]1O", "note": "(stereo partly drawn) [FSA-507061]", "MIC": 64}
    ]},
    {"tested_on": "S. aureus Micromyx USA 300", "test": "MIC determination", "format": "cell-based", "conditions": "Staphylococcus aureus, USA300; S. aureus Micromyx USA 300; read-out: MIC", "units": {"MIC": "µg/mL"}, "values": [
      {"smiles": "CSC1O[C@H]([C@H](NC(=O)[C@H]2NC[C@@H]3C[C@@H](c4ccc(F)cc4)CCO[C@H]32)[C@H](C)Cl)C(O)[C@@H](O)[C@H]1O", "note": "(stereo partly drawn) [FSA-507061]", "MIC": "≤ 0.06"}
    ]},
    {"tested_on": "S. pneumoniae MMX 3031 cMefA", "test": "MIC determination", "format": "cell-based", "conditions": "Streptococcus pneumoniae, MMX3031CMEFA", "units": {"MIC": "µg/mL"}, "values": [
      {"smiles": "CSC1O[C@H]([C@H](NC(=O)[C@H]2NC[C@@H]3C[C@@H](c4ccc(F)cc4)CCO[C@H]32)[C@H](C)Cl)C(O)[C@@H](O)[C@H]1O", "note": "(stereo partly drawn) [FSA-507061]", "MIC": "≤ 0.06"}
    ]},
    {"tested_on": "P. aeruginosa MMX 3476 Δmex", "test": "MIC determination", "format": "cell-based", "conditions": "Pseudomonas aeruginosa", "units": {"MIC": "µg/mL"}, "values": [
      {"smiles": "CSC1O[C@H]([C@H](NC(=O)[C@H]2NC[C@@H]3C[C@@H](c4ccc(F)cc4)CCO[C@H]32)[C@H](C)Cl)C(O)[C@@H](O)[C@H]1O", "note": "(stereo partly drawn) [FSA-507061]", "MIC": "> 64"}
    ]},
    {"tested_on": "C. difficile BAA 1805", "test": "MIC determination", "format": "cell-based", "conditions": "Clostridioides difficile, BAA1805; C. difficile BAA 1805; read-out: MIC", "units": {"MIC": "µg/mL"}, "values": [
      {"smiles": "CSC1O[C@H]([C@H](NC(=O)[C@H]2NC[C@@H]3C[C@@H](c4ccc(F)cc4)CCO[C@H]32)[C@H](C)Cl)C(O)[C@@H](O)[C@H]1O", "note": "(stereo partly drawn) [FSA-507061]", "MIC": 2}
    ]}
  ]
}
